Blank lines part the entries; values can stand above or below the compound they belong to. Activity calls are given as the source filed them. No cut-off for these calls is given here.
Columns and labels:
[1] = Distribution coefficient, logD of the compound; format: physicochemical; conditions: octanol/water
[2] = biological target: T1, Tyrosine-protein kinase Yes (Homo sapiens, UniProt P07947); conditions: 100 nM
Description: Inhibition of N-terminal 6His-tagged full length recombinant human YES expressed in baculovirus expression system at 100 nM

[3] = biological target: T1, Tyrosine-protein kinase Yes; test: Inhibition of N-terminal 6His-tagged full length recombinant human YES expressed in baculovirus expression system
Target sequence in this assay (P07947 whole entry): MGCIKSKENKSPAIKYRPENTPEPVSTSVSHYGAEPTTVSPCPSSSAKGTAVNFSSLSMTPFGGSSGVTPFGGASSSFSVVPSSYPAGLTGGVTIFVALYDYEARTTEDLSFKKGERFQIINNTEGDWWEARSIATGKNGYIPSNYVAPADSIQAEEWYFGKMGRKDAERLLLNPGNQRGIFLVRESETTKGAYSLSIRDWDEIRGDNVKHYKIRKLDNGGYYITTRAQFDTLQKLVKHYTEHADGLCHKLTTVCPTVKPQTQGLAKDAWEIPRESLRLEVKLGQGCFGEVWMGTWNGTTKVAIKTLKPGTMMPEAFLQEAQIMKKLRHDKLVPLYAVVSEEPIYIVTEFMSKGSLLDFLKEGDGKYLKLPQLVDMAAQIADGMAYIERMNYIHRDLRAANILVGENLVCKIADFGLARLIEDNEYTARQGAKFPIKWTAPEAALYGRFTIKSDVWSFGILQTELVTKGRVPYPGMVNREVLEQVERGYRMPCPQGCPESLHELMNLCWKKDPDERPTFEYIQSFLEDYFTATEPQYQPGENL

[4] = biological target: D(3) dopamine receptor (Homo sapiens) (UniProt P35462); test: Activity at dopamine receptor D3 (unknown origin) at <1 uM
[5] = biological target: Sodium-dependent dopamine transporter (Homo sapiens) (UniProt Q01959); test: Activity at dopamine transporter (unknown origin) at <1 uM
[6] = biological target: T2, Tyrosine-protein kinase Lck (Homo sapiens, UniProt P06239); conditions: Sf21, 100 nM
Target sequence in this assay (P06239 2-509 limits assumed): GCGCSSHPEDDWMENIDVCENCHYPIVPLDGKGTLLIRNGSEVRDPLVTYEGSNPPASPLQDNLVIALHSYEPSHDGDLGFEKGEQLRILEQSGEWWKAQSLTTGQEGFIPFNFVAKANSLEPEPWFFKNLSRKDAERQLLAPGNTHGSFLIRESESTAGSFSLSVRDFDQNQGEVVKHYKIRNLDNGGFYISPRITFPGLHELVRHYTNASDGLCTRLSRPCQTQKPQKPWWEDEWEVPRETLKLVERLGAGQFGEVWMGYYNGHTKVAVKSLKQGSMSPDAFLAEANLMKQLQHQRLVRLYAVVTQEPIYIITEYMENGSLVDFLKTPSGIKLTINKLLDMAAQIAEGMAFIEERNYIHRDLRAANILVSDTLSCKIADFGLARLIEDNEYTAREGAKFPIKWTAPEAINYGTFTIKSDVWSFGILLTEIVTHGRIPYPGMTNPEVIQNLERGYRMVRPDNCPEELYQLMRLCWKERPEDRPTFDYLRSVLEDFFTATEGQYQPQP
Description: Inhibition of N-terminal 6His-tagged full length recombinant human LCK expressed in baculovirus infected Sf21 cells at 100 nM

[7] = biological target: T3, Alpha-1B adrenergic receptor (Homo sapiens) (UniProt P35368); test: Activity at alpha-1B adrenergic receptor (unknown origin) at <1 uM
T3 sequence (whole entry): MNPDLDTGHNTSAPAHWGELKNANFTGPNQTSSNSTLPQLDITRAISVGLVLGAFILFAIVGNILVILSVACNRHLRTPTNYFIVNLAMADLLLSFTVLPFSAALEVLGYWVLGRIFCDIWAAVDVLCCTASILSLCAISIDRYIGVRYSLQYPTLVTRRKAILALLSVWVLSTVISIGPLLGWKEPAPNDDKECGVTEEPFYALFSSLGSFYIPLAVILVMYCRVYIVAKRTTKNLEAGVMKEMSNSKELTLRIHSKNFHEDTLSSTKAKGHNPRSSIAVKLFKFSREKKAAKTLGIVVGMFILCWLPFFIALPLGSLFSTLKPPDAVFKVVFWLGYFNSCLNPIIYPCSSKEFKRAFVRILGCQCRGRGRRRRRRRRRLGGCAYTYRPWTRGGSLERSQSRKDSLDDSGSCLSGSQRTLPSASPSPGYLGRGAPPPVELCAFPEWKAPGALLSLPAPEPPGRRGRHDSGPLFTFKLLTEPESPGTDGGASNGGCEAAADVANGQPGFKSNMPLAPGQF

[8] = biological target: T4, Protein kinase C theta type (Homo sapiens, UniProt Q04759); test: Inhibition of C-terminal 6His-tagged recombinant full length human PKCtheta expressed in fall armyworm Sf21 cells
Target sequence in this assay (Q04759 whole entry): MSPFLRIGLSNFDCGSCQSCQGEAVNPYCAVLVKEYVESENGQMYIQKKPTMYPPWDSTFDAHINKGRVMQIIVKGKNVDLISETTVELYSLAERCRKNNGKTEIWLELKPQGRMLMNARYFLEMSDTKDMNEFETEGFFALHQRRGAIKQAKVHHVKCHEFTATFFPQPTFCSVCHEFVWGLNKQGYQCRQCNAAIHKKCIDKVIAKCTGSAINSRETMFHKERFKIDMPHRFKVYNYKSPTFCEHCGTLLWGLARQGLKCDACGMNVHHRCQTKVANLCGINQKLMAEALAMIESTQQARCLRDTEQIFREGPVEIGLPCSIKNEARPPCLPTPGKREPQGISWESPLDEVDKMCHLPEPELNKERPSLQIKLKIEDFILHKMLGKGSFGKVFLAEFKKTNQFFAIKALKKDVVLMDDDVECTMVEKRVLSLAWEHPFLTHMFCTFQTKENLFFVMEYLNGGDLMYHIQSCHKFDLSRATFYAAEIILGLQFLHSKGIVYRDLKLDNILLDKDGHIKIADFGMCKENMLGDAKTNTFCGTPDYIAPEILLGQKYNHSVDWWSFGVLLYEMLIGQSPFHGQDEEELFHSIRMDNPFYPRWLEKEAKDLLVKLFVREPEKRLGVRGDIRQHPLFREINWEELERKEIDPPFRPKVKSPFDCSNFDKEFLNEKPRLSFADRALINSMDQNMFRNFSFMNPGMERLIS

[9] = biological target: T5, Muscarinic acetylcholine receptor M5 (Homo sapiens) (UniProt P08912); test: Activity at muscarinic acetylcholine receptor M5 (unknown origin) at <1 uM
T5 sequence (whole entry): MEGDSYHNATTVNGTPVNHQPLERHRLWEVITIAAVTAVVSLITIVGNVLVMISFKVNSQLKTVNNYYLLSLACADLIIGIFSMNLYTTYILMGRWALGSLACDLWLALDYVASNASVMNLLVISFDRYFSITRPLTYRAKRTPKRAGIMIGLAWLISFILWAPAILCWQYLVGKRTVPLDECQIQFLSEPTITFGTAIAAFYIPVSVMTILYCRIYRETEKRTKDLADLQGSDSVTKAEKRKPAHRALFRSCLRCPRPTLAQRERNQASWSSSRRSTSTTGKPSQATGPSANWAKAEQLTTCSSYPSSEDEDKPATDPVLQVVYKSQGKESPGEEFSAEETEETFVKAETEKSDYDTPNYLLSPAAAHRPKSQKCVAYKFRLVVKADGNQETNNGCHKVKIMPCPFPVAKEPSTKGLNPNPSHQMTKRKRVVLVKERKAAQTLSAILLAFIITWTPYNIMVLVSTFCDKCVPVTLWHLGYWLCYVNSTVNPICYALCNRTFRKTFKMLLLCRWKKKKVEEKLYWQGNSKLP

[10] = biological target: T4, Protein kinase C theta type; test: Inhibition of human PKCtheta at 100 nM
Target sequence in this assay (Q04759 whole entry, looked up): as the sequence (Q04759 whole entry) above

[11] = biological target: T6, Muscarinic acetylcholine receptor M2 (Homo sapiens) (UniProt P08172); test: Activity at muscarinic acetylcholine receptor M2 (unknown origin) at <1 uM
T6 sequence (whole entry): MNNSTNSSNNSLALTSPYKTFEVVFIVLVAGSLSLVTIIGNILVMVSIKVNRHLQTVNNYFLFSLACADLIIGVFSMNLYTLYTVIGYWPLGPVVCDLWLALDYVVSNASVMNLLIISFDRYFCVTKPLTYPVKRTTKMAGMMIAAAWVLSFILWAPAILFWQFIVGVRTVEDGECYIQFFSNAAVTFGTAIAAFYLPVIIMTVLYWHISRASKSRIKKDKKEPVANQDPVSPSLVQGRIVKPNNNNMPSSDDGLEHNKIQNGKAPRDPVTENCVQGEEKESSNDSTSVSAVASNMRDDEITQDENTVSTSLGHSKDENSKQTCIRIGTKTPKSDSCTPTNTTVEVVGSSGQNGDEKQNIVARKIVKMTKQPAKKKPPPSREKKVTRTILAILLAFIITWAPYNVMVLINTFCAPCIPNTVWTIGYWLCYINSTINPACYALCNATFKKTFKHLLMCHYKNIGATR

[12] = biological target: T7, Serine/threonine-protein kinase PAK 2 (Homo sapiens, UniProt Q13177)
Description: Binding affinity to human PAK2 (P151 to R525 residues) expressed in bacterial expression system by KINOMEscan assay

[13] = biological target: T8, Tyrosine-protein kinase Lyn (Homo sapiens, UniProt P07948); test: Inhibition of N-terminal his6-tagged recombinant full-length human LYN expressed in baculovirus infected Sf21 cells at 100 nM
[14] = biological target: T9, Proto-oncogene tyrosine-protein kinase Src (Homo sapiens, UniProt P12931); test: Inhibition of N-terminal His6-tagged recombinant human Src (1 to 530 residues) expressed in baculovirus infected sf21 cells at 100 nM
[15] = Intrinsic clearance in rat hepatocytes assessed per million cells; format: ADME, cell-based, Hepatocyte; conditions: read-out: CLH
[16] = biological target: T7, Serine/threonine-protein kinase PAK 2; remark: listed apart in the source
Description: Inhibition of N-terminal 6His-tagged recombinant human PAK2 (3-end residues) expressed in Escherichia coli

[17] = biological target: T10, Tyrosine-protein kinase Fyn (Homo sapiens, UniProt P06241); test: Inhibition of N-Terminal His6-tagged full length recombinant human FYN expressed in baculovirus expression system at 100 nM
[18] = biological target: T11, Alpha-2C adrenergic receptor (Homo sapiens) (UniProt P18825); test: Activity at alpha-2C adrenergic receptor (unknown origin) at <1 uM
T11 sequence (whole entry): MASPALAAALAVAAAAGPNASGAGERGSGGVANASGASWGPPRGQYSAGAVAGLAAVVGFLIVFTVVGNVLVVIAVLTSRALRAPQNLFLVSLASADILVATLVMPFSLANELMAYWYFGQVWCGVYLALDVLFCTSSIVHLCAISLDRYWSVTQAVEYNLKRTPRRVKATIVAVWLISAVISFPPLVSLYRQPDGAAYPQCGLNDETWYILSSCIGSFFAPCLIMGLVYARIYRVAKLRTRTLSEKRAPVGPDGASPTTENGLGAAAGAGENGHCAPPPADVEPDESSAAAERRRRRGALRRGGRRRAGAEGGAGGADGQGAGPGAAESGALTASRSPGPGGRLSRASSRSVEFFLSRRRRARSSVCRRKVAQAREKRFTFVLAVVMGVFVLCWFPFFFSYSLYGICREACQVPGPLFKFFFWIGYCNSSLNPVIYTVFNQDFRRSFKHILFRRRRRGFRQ

[19] = biological target: T10, Tyrosine-protein kinase Fyn; test: Inhibition of N-Terminal His6-tagged full length recombinant human FYN expressed in baculovirus expression system
Target sequence in this assay (P06241 whole entry): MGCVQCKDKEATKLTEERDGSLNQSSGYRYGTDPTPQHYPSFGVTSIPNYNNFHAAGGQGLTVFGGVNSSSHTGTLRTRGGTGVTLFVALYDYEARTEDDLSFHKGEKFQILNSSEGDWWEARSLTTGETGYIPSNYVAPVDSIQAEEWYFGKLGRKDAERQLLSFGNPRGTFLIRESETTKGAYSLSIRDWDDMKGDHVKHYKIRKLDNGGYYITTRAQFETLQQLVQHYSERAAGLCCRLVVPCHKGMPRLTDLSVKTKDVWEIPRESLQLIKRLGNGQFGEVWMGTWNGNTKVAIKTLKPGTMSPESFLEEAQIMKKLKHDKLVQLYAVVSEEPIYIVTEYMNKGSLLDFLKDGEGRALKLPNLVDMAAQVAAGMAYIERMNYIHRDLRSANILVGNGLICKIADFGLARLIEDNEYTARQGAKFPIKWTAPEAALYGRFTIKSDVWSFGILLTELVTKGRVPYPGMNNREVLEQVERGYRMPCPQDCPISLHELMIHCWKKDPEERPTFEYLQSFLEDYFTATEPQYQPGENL

[20] = biological target: T12, 5-hydroxytryptamine receptor 2C (Homo sapiens) (UniProt P28335); test: Activity at 5HT2C receptor (unknown origin) at <1 uM
T12 sequence (whole entry): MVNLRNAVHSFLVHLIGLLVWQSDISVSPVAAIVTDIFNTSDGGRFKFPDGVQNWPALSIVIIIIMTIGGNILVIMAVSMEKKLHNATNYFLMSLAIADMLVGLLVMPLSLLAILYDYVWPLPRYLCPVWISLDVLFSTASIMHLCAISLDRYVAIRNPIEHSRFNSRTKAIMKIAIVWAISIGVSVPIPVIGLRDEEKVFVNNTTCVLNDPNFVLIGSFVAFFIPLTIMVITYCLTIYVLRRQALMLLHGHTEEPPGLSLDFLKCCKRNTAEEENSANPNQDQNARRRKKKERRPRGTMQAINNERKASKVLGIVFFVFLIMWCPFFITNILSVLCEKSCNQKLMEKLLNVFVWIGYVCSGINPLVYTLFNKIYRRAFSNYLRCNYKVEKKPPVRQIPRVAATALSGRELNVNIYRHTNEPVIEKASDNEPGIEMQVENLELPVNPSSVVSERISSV

[21] = biological target: T13, Muscarinic acetylcholine receptor M1 (Homo sapiens) (UniProt P11229); test: Activity at muscarinic acetylcholine receptor M1 (unknown origin) at <1 uM
T13 sequence (whole entry): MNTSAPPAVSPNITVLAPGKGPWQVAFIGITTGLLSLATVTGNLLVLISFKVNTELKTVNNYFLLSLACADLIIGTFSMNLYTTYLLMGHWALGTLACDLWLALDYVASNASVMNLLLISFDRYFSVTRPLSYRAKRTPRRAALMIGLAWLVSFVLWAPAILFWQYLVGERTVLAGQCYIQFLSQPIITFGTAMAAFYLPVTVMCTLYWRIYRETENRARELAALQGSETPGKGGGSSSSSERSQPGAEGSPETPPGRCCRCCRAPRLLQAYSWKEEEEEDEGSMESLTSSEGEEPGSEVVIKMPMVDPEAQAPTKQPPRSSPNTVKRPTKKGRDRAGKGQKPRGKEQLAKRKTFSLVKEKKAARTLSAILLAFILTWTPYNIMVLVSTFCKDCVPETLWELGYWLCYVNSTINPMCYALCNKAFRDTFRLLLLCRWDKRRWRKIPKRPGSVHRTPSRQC

[22] = biological target: T9, Proto-oncogene tyrosine-protein kinase Src; test: Inhibition of N-terminal His6-tagged recombinant human Src (1 to 530 residues) expressed in baculovirus infected sf21 cells
[23] = biological target: T2, Tyrosine-protein kinase Lck; test: Inhibition of N-terminal 6His-tagged full length recombinant human LCK expressed in baculovirus expression system
Homo sapiens = species: Homo sapiens; test: Activity at CaV-L (unknown origin) at <1 uM
[24] = biological target: PAK2 (serine/threonine-protein kinase PAK 2) (Homo sapiens, UniProt Q13177); test: Inhibition of N-terminal 6His-tagged recombinant human PAK2 (3-end residues) expressed in expressed in Escherichia coli at 100 nM
[25] = biological target: T8, Tyrosine-protein kinase Lyn; test: Inhibition of N-terminal his6-tagged recombinant full-length human LYN expressed in baculovirus infected Sf21 cells
Target sequence in this assay (P07948 whole entry, the tested form may be a part): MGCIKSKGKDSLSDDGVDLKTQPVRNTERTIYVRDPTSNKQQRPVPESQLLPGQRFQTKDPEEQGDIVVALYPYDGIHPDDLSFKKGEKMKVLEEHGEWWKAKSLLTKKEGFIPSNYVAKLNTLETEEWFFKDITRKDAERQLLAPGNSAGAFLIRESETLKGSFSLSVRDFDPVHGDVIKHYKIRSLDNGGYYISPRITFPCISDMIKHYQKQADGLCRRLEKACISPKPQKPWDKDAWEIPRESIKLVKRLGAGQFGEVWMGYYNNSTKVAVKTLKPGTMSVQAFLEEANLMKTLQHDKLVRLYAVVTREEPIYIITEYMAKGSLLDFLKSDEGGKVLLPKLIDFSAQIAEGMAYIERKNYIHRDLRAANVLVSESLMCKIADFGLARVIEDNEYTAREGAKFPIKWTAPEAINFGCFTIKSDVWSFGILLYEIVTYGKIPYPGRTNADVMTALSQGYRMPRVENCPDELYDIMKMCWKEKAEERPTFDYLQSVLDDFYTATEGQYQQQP

[26] = biological target: 5-hydroxytryptamine receptor 2B (Homo sapiens) (UniProt P41595); test: Activity at 5HT2B receptor (unknown origin) at <1 uM
Chain of 5-hydroxytryptamine receptor 2B (Homo sapiens) (P41595 whole entry): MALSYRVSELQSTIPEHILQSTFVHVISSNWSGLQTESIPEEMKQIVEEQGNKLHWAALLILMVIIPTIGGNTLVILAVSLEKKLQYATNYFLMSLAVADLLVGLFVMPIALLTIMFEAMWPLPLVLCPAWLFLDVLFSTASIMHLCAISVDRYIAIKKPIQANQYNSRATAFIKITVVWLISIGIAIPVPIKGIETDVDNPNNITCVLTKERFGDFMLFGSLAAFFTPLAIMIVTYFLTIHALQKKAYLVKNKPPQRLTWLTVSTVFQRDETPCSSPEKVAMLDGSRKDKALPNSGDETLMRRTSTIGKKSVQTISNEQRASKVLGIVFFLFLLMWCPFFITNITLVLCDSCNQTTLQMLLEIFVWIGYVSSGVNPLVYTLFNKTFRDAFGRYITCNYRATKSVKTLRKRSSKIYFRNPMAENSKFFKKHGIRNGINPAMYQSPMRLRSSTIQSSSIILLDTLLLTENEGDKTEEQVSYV

T7 sequence (Q13177 whole entry): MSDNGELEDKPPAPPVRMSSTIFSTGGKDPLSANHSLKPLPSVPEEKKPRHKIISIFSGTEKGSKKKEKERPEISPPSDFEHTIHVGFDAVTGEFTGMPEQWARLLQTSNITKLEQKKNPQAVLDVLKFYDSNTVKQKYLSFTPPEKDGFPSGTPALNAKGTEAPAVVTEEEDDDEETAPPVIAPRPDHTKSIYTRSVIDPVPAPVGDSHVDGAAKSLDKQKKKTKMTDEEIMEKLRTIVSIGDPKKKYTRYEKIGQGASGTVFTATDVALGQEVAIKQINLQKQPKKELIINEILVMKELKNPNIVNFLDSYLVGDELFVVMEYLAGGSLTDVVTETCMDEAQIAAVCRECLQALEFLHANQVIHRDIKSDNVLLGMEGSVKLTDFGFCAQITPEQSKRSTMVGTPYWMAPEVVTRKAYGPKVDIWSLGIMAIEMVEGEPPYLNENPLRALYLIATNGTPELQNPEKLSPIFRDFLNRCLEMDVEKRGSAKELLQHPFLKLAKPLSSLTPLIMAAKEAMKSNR
T9 sequence (P12931 2-536 limits assumed): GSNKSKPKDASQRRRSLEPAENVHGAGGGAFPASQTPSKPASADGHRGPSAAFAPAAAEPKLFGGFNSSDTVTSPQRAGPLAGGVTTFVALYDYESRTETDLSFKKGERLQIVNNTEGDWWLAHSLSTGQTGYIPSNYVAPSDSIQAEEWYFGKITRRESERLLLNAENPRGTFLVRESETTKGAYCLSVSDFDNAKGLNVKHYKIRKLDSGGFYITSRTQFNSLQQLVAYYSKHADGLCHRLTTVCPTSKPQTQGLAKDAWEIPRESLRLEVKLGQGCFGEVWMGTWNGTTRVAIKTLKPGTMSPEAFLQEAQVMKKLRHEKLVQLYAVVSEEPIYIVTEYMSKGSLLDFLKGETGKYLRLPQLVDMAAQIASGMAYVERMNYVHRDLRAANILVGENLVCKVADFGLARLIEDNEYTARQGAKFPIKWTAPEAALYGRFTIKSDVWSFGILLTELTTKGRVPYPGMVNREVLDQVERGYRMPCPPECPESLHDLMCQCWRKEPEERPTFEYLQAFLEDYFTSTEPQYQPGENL
Chain of D(3) dopamine receptor (Homo sapiens) (P35462 whole entry): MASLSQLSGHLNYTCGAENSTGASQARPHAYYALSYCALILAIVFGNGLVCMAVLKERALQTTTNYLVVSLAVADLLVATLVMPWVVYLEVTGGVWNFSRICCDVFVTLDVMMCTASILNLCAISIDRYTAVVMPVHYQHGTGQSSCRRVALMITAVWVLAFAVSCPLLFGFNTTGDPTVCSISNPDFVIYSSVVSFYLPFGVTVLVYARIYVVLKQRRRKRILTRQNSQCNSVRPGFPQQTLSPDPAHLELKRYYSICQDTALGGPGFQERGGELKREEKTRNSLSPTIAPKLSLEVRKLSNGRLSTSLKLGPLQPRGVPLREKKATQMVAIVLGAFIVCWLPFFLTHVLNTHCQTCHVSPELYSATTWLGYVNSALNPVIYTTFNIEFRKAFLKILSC
Chain of PAK2 (serine/threonine-protein kinase PAK 2) (Q13177 whole entry): as the sequence (Q13177 whole entry) above

SMILES: CCS(=O)(=O)c1cc(Nc2ncc(F)c(N(Cc3ccccc3)c3cc(CO)ccc3C)n2)ccc1N1CCN(C)CC1
logD [1]: 2.8

SMILES: CCS(=O)(=O)c1cc(Nc2ncc(F)c(N(Cc3ccccc3F)c3cc(CO)ccc3C)n2)ccc1N1CCN(C)CC1
logD [1]: 3.3

SMILES: CN(c1cc(CO)ccc1Cl)c1nc(Nc2cc(N3CCOCC3)cc(S(C)(=O)=O)c2)ncc1F
logD [1]: 3.7

SMILES: CCS(=O)(=O)c1cc(Nc2ncc(F)c(N(Cc3ccccc3C#N)c3cc(CO)ccc3C)n2)ccc1N1CCN(C)CC1
inhibition [2]: 95%
IC50 [3]: 0.004 µM
Activity [4]: Active
Activity [5]: Active
inhibition [6]: 83%
Activity [7]: Active
IC50 [8]: 0.007 µM
Activity [9]: Active
inhibition [10]: 91%
Activity [11]: Active
Kd [12]: 0.00032 µM
inhibition [13]: 91%
inhibition [14]: 86%
hepatocyte CLint [15]: 30 µL/min/1e6 cells
IC50 [16]: 0.006 µM
inhibition [17]: 87%
Activity [18]: Active
IC50 [19]: 0.045 µM
Activity [20]: Active
Activity [21]: Active
IC50 [22]: 0.093 µM
IC50 [23]: 0.036 µM
Activity (Homo sapiens): Active
logD [1]: 3.7
inhibition at 0.1 µM [24]: 98%
IC50 [25]: 0.031 µM
Activity [26]: Active

SMILES: CCn1c(=O)c(-c2ccc(-c3cncs3)cc2Cl)cc2cnc(Nc3ccc(N4CCN(C)CC4)cc3)nc21
logD [1]: > 4

Next, values leading:

logD [1]: 3.8
SMILES: CCS(=O)(=O)c1cc(Nc2ncc(F)c(N(C)c3cc(CO)c(C)cc3C)n2)ccc1N1CCN(C)CC1

logD [1]: 2.6
SMILES: Cc1ccc(CO)cc1N(C)c1nc(Nc2ccc(N3CCN(C)CC3)c(S(C)(=O)=O)c2)ncc1F

logD [1]: 3
SMILES: CCS(=O)(=O)c1cc(Nc2ncc(F)c(N(C)c3cc(CO)ccc3C)n2)ccc1N1CCN(C)CC1

— ChEMBL document CHEMBL3864184, “Optimization of Highly Kinase Selective Bis-anilino Pyrimidine PAK1 Inhibitors” (ACS Med Chem Lett, 2016)
